# Data from US6867320B2, “Substituted phenylalkanoic acid derivatives and use thereof” (Asahi Kasei Pharma Corporation, priority 2002, dated 2005).
# Columns and labels:
# [1] = tested on: PGE2 production from IL-1β-stimulated MG-63 cells; assay: Suppressing action on PGE2 production from IL-1β-stimulated MG-63 cells; assay type: cell-based; details: Homo sapiens, IL-1β 1 ng/ml, 18 hours, read-out: PGE2 production suppression ratio
# How it was run: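 PGE2 in 18 h supernatants was quantified by EIA and expressed as % suppression relative to IL-1β-only and unstimulated controls. Cells were the MG-63 osteosarcoma line, plated at 2×10^4/well, given compound in 0.5% FBS EMEM, then 1 ng/ml IL-1β final.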
# [2] = tested on: PGD2 production from IgE-stimulated RBL-2H3 cells; assay: Suppressing action on PGD2 production from IgE-stimulated RBL-2H3 cells; assay type: cell-based; details: Rattus norvegicus, 10 min, IgE/DNP-BSA stimulated RBL-2H3 cells, read-out: PGD2 production suppression ratio
# From the text: (§1) 2. Suppressing Action on PGD2 and LTB4 Production from IgE-Stimulated RBL-2H3 Cells
# (§2) Suppressing action on PGD2 and LTB4 production caused by IgE as an allergic stimulant was investigated by the following method. Cells of RBL-2H3, which is a rat mastocytoma cell line (purchased from ATCC), were suspended in DEMEM medium (GIBCO) containing 10% fetal bovine serum (BioFluid), inoculated to each well of 48-well culture plate at a density of 2×10^4 cells/well and cultured overnight. Then, IgE antiserum directed to dinitrophenylated BSA (henceforth DNP-BSA) was further added to each well, and the cells were cultured for 30 minutes. Then, the medium was changed to DEMEM medium containing 0.5% fetal bovine serum, a test compound was added with each well, and DNP-BSA was further added at a final concentration of 100 ng/ml as a stimulant. Ten minutes after the stimulant was added, the culture supernatant was collected, and the PGD2 concentration and LTB4 concentration in the culture supernatant were measured by using EIA kit (CAYMAN). By using a well which was not added with the stimulant as a negative control and a well which was added only with the stimulant as a positive control, suppressing ratios on mediator production were calculated from the production amounts of the mediators in the well added with the test compound using the following equation. PGD2 or LTB4 production suppression ratio=[1−(C−B)/(A−B)]×100 • A: PGD2 or LTB4 production amount of positive control • B: PGD2 or LTB4 production amount of negative control • C: PGD2 or LTB4 production amount in well added with test compound
# (§3) Further, as control compounds for comparison, reference compound (1), 3-(2-cyclohexylmethyloxy-1,1′-biphenyl-5-yl)propionic acid described in WO99/19291, reference compounds (2) and (3), [2-(5,6,7,8-tetrahydro-5,5,8,8-tetramethyl-2-naphthalenyl)methyloxy-1,1′-biphenyl-5-yl]carboxylic acid [reference compound (2)] and 3-[3′-carboxy-2-(5,6,7,8-tetrahydro-5,5,8,8-tetramethyl-2naphthalenyl)methyloxy-1,1′-biphenyl-6-yl]propionic acid [reference compound (3)] described in U.S. Pat. No. 5,391,817 and Japanese Patent Unexamined Publication (Kokai) No. 7-22399, respectively, were used, and activities thereof were similarly measured.
# [3] = tested on: LTB4 production from IgE-stimulated RBL-2H3 cells; assay: Suppressing action on LTB4 production from IgE-stimulated RBL-2H3 cells; assay type: cell-based; details: Rattus norvegicus, 10 min, IgE/DNP-BSA stimulated RBL-2H3 cells, read-out: LTB4 production suppression ratio
# From the text: as §1, §2, §3
# [4] = tested on: zymosan-stimulated footpad edema; assay: Mouse zymosan-stimulated footpad edema reaction; assay type: in vivo; details: ICR female mice, oral 0.1 to 500 mg/kg, compared with positive control group
# How it was run: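 Female ICR mice (6–7 weeks, n=8) dosed orally at 0.1 to 500 mg/kg in 0.5% methylcellulose; 1 h later zymosan (1 mg/ml, 0.02 ml) injected s.c. into right hind footpad. Edema volume at 1 and 2 h gave AUC to 2 h; suppression (%) calculated against positive control AUC.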
# [5] = tested on: IgE-stimulated footpad edema; assay: Mouse IgE-stimulated footpad edema reaction; assay type: in vivo; details: C57BL/6 male mice, oral 0.1 to 500 mg/kg, compared with positive control group
# Description: 4. Suppressing Effect on Mouse IgE-stimulated Footpad Edema Reaction
# Suppression on footpad edema caused by IgE antibody as an allergic stimulant was studied by the following method. Groups of C57BL/6 male mice (9- to 11-week old) each consisting of five mice were used for the test. Anti-DNP-BSA IgE serum was subcutaneously administered in a volume of 20 μl to right hind leg footpad of each mouse one day before the test. A test compound was suspended or dissolved in purified water containing 0.5% methylcellulose and orally administered to the test animals at 0.1 to 500 mg/0.2 ml/kg. To the control group, purified water containing 0.5% methylcellulose was administered in a similar manner, which was not added with the test compound. Two hours after the administration of the test compound, 0.2 ml of a solution of DNP-BSA dissolved in physiological saline (Otsuka Pharmaceutical) at 2.5 μg/ml was intravenously administered. The thickness of right hind leg footpad was measured by using a digital thickness gauge (MITSUTOYO) 10, 15, 20, and 30 minutes after the administration of DNP-BSA. A difference of the thickness of footpad measured above and the thickness before the administration of the test compound measured beforehand was regarded as a thickness of edema.
# For the thickness of the edema at 10, 15, 20 and 30 minutes after the DNP-BSA administration, a graph was prepared indicating time in abscissa and the edema thickness in ordinate, and edema thickness AUC […] was obtained by calculation according to the following equation. Edema thickness AUC (mm·minute)=1/2×10×A+5×(A+B)/2+5×(B+C)/2+10×(C+D)/2 • A: Edema thickness 10 minutes after DNP-BSA administration • B: Edema thickness 15 minutes after DNP-BSA administration • C: Edema thickness 20 minutes after DNP-BSA administration • D: Edema thickness 30 minutes after DNP-BSA administration
# A suppressing ratio on edema of a test compound was obtained by calculation in accordance with the following equation. Edema suppression ratio (%)=[1−B/A]×100 • A: Edema thickness AUC of positive control • B: Edema thickness AUC of test compound administered group (2) Measurement Results
structure (smiles),measurement,setting,value
"O=C(O)CCc1ccc(OCC2CCCCC2)c(-c2ccc3cc(O)ccc3c2)c1 [Compound 002, 3-[4-cyclohexylmethyloxy-3-(6-hydroxynaphthalen-2-yl)phenyl]propionic acid]",inhibition at 0.4 µM,[1],≥ 50%
same,inhibition at 0.4 µM,[2],≥ 50%
same,inhibition at 0.4 µM,[3],≥ 50%
same,suppression of footpad edema caused by zymosan,[4],suppressed footpad edema
same,suppression of footpad edema caused by IgE stimulation,[5],suppressed the footpad edema
"Nc1ccc2ccc(-c3cc(CCC(=O)O)ccc3OCC3CCCC3)cc2c1 [Compound 014, 3-[3-(7-aminonaphthalen-2-yl)-4-cyclopentylmethyloxyphenyl]propionic acid]",inhibition at 0.4 µM,[1],≥ 50%
same,inhibition at 0.4 µM,[2],≥ 50%
same,inhibition at 0.4 µM,[3],≥ 50%
same,suppression of footpad edema caused by IgE stimulation,[5],suppressed the footpad edema
"Cn1ccc2c(-c3cc(CCC(=O)O)ccc3OC3CCCCC3)cccc21 [Compound 126, 3-[4-cyclohexyloxy-3-(1-methyl-1H-indol-4-yl)phenyl]propionic acid]",inhibition at 0.4 µM,[1],≥ 50%
same,suppression of footpad edema caused by zymosan,[4],suppressed footpad edema
same,suppression of footpad edema caused by IgE stimulation,[5],suppressed the footpad edema
"O=C(O)CCc1ccc(OCc2ccccc2-c2ccccc2)c(-c2ccc3[nH]ccc3c2)c1 [Compound 140, 3-{4-[(biphenyl-2-yl)methyloxy]-3-(1H-indol-5-yl)phenyl}propionic acid]",inhibition at 0.4 µM,[1],≥ 50%
same,suppression of footpad edema caused by zymosan,[4],suppressed footpad edema
same,suppression of footpad edema caused by IgE stimulation,[5],suppressed the footpad edema
"O=C(O)CCc1ccc(OCc2cccc(Cl)c2Cl)c(-c2ccc3[nH]ccc3c2)c1 [Compound 160, 3-[4-(2,3-dichlorophenylmethyloxy)-3-(1H-indol-5-yl)phenyl]propionic acid]",inhibition at 0.4 µM,[1],≥ 50%
same,inhibition at 0.4 µM,[2],≥ 50%
same,inhibition at 0.4 µM,[3],≥ 50%
same,suppression of footpad edema caused by IgE stimulation,[5],suppressed the footpad edema
"O=C(O)CCc1ccc(OCc2ccc(Cl)c(Cl)c2)c(-c2ccc3[nH]ccc3c2)c1 [Compound 166, 3-[4-(3,4-dichlorophenylmethyloxy)-3-(1H-indol-5-yl)phenyl]propionic acid]",inhibition at 0.4 µM,[1],≥ 50%
same,inhibition at 0.4 µM,[2],≥ 50%
same,inhibition at 0.4 µM,[3],≥ 50%
same,suppression of footpad edema caused by IgE stimulation,[5],suppressed the footpad edema
"CCC(CC)COc1ccc(CCC(=O)O)cc1-c1ccc2[nH]ccc2c1 [Compound 183, 3-[4-(2-ethylbutyloxy)-3-(1H-indol-5-yl)phenyl]propionic acid]",inhibition at 0.4 µM,[1],≥ 50%
same,suppression of footpad edema caused by zymosan,[4],suppressed footpad edema
same,suppression of footpad edema caused by IgE stimulation,[5],suppressed the footpad edema
"O=C(O)CCc1ccc(OCc2cccc3ccccc23)c(-c2ccc3[nH]ccc3c2)c1 [Compound 190, 3-{3-(1H-indol-5-yl)-4-[(naphthalen-1-yl)methyloxy]phenyl}propionic acid]",inhibition at 0.4 µM,[1],≥ 50%
same,inhibition at 0.4 µM,[2],≥ 50%
same,inhibition at 0.4 µM,[3],≥ 50%
same,suppression of footpad edema caused by IgE stimulation,[5],suppressed the footpad edema
"Cc1ccccc1CCOc1ccc(CCC(=O)O)cc1-c1ccc2[nH]ccc2c1 [Compound 200, 3-{3-(1H-indol-5-yl)-4-[2-(2-methylphenyl)ethyloxy]phenyl}propionic acid]",inhibition at 0.4 µM,[1],≥ 50%
same,suppression of footpad edema caused by zymosan,[4],suppressed footpad edema
same,suppression of footpad edema caused by IgE stimulation,[5],suppressed the footpad edema
"Cc1cccc(CCOc2ccc(CCC(=O)O)cc2-c2ccc3[nH]ccc3c2)c1 [Compound 202, 3-{3-(1H-indol-5-yl)-4-[2-(3-methylphenyl)ethyloxy]phenyl}propionic acid]",inhibition at 0.4 µM,[1],≥ 50%
same,suppression of footpad edema caused by zymosan,[4],suppressed footpad edema
same,suppression of footpad edema caused by IgE stimulation,[5],suppressed the footpad edema
"COc1ccccc1CCOc1ccc(CCC(=O)O)cc1-c1ccc2[nH]ccc2c1 [Compound 205, 3-{3-(1H-indol-5-yl)-4-[2-(2-methoxyphenyl)ethyloxy]phenyl}propionic acid]",inhibition at 0.4 µM,[1],≥ 50%
same,suppression of footpad edema caused by zymosan,[4],suppressed footpad edema
same,suppression of footpad edema caused by IgE stimulation,[5],suppressed the footpad edema
"O=C(O)CCc1ccc(OCCc2ccccc2Cl)c(-c2ccc3[nH]ccc3c2)c1 [Compound 209, 3-{4-[2-(2-chlorophenyl)ethyloxy]-3-(1H-indol-5-yl)phenyl}propionic acid]",inhibition at 0.4 µM,[1],≥ 50%
same,suppression of footpad edema caused by zymosan,[4],suppressed footpad edema
same,suppression of footpad edema caused by IgE stimulation,[5],suppressed the footpad edema
"O=C(O)CCc1ccc(OCCc2ccccc2C(F)(F)F)c(-c2ccc3[nH]ccc3c2)c1 [Compound 214, 3-[3-(1H-indol-5-yl)-4-{2-[2-(trifluoromethyl)phenyl]-ethyloxy}phenyl]propionic acid]",inhibition at 0.4 µM,[1],≥ 50%
same,inhibition at 0.4 µM,[2],≥ 50%
same,inhibition at 0.4 µM,[3],≥ 50%
same,suppression of footpad edema caused by IgE stimulation,[5],suppressed the footpad edema
"O=C(O)CCc1ccc(OCCc2ccc3ccccc3c2)c(-c2ccc3[nH]ccc3c2)c1 [Compound 217, 3-{4-[2-(naphthalen-2-yl)ethyloxy]-3-(1H-indol-5-yl)phenyl}propionic acid]",inhibition at 0.4 µM,[1],≥ 50%
same,inhibition at 0.4 µM,[2],≥ 50%
same,inhibition at 0.4 µM,[3],≥ 50%
same,suppression of footpad edema caused by IgE stimulation,[5],suppressed the footpad edema
"O=C(O)CCc1ccc(OCCOc2ccc(Cl)cc2)c(-c2ccc3[nH]ccc3c2)c1 [Compound 226, 3-{4-[2-(4-chlorophenyloxy)ethyloxy]-3-(1H-indol-5-yl)phenyl}propionic acid]",inhibition at 0.4 µM,[1],≥ 50%
same,suppression of footpad edema caused by zymosan,[4],suppressed footpad edema
same,suppression of footpad edema caused by IgE stimulation,[5],suppressed the footpad edema
"O=C(O)CCc1ccc(OCCSc2ccccc2)c(-c2ccc3[nH]ccc3c2)c1 [Compound 228, 3-{3-(1H-indol-5-yl)-4-[2-(phenylthio)ethyloxy]phenyl}propionic acid]",inhibition at 0.4 µM,[1],≥ 50%
same,suppression of footpad edema caused by zymosan,[4],suppressed footpad edema
same,suppression of footpad edema caused by IgE stimulation,[5],suppressed the footpad edema
